Results reported in US9161543B2, “Biocontrol through the use of chlorine-stabilizer blends” (NALCO COMPANY, priority 2011, dated 2015).

Experiment: Blending of stabilizer and sodium hypochlorite: residual oxidant (TRO, FRO) and yield
Format: physicochemical
Details: Molar Ratio Cl2:N2 4:1
Description: A number of biocide formulations were prepared and were applied to samples of process water from a paper mill.

FRO (free residual oxidant) (Caustic in Bleach = 0.5%): 1219 ppm
FRO/TRO (Caustic in Bleach = 0.5%): 18.61%
TRO (total residual oxidant) (Caustic in Bleach = 0.5%): 6550 ppm
TRO Yield (Caustic in Bleach = 0.5%): 80.93%
FRO (free residual oxidant) (Caustic in Bleach = 3.2%): 1450 ppm
FRO/TRO (Caustic in Bleach = 3.2%): 23.02%
TRO (total residual oxidant) (Caustic in Bleach = 3.2%): 6300 ppm
TRO Yield (Caustic in Bleach = 3.2%): 77.84%
SMILES: NS(=O)(=O)O [sulfamic acid]
